Data set [1] in a line: Osmoprotective activity: cell viability (XTT assay) under hyperosmolar stress. Type of data set: cell-based, human. The note with it: human, 0 h (pre-osmotic stress, after 17 h preincubation). The protocol: (§1) A study was carried out to determine the osmoprotective capacity of sodium lipoate (A) during hyperosmolar stress on human conjunctival (WKD) and corneal (HCE) cells. The osmoprotective activity of A, then A with B and C, was evaluated by measuring cell viability in particular. To that end, cells were preincubated for 17 h with the test substance(s). Next, the medium was removed and the cells were subjected to hyperosmolar stress by addition of sodium chloride (100 mM NaCl) to the culture medium (M199 for the WKD cells and KSFM for the HCE cells). Cellgrowth control cells were contacted with isotonic medium. Cell viability was analyzed preosmotic stress (0 h) in order to measure the effect of the molecules remaining in contact with the cells during the 17 h of incubation, then at 4 h, 8 h and 24 h post-induction of osmotic stress. The cell viability measurement was carried out via an XTT assay. Various concentrations of A were tested for the “molecule alone” tests: 0.0005%, 0.001%, 0.005%, 0.01% and 0.05% w/v. For the molecule mixture tests, the following concentrations were tested: for A: 0.001%, 0.005%, and 0.01% w/v; for B: 0.25% w/v; and for C: 0.5% and 1% w/v. To ensure the validity and the significance of the data, the results obtained were analyzed statistically. The results presented below result from the mean of 3 independent repetitions, carried out on different days.
Background: Tetrazolium assays rely on reduction of a dye to a coloured formazan, in cell work by metabolically active cells.

Data set [2] has as its system human conjunctival (WKD) and corneal (HCE) cells. The data set is described as above. Type of data set: cell-based. The note with it: Homo sapiens, HCE; for viability at 0.0005 % strength: 0.0005% w/v; for viability at 0.001 % strength: 0.001% w/v; for viability at 0.005 % strength: 0.005% w/v; for viability at 0.01 % strength: 0.01% w/v; for viability at 0.05 % strength: 0.05% w/v. The protocol:
as §1

Setting [3] is: 4 h post-induction of osmotic stress (100 mM NaCl).
The mark [4] stands for this setting: 8 h post-induction of osmotic stress (100 mM NaCl).
The mark [5] stands for this setting: 24 h post-induction of osmotic stress (100 mM NaCl).

We go through one compound from patent US10940206B2, “Ophthalmic composition comprising lipoic acid and a mucomimetic polymer” (OPHTALMIS MONACO, priority 2015, dated 2021).

Turning to `O=C(O)CCCCC1CCSS1` (centres unmarked) [sodium lipoate, 5-(1,2dithiolan-3-yl)pentanoic acid], in data set [1] (0.0005% w/v), the viability – broadly, a read-out of living cells in per cent, often relative to untreated cells – at 17 h, 0.0005 % w/v turned out to be 99.9%. For the same compound, the viability at 17 h, 0.001 % w/v in data set [1] (0.001% w/v) is 98.5%. Also, the viability at 17 h, 0.005 % w/v in data set [1] (0.005% w/v) stood at 103%. The viability at 17 h, 0.01 % w/v in data set [1] (0.01% w/v) is 98.1%. For the same compound, the viability at 17 h, 0.05 % w/v in data set [1] (0.05% w/v) was 56.3%. In data set [2] (setting [3]), the viability at 0.0005 % strength worked out at 62.7%, the viability at 0.001 % strength worked out at 69.6%, the viability at 0.005 % strength stood at 109% and the viability at 0.01 % strength worked out at 120%. Also, the viability at 0.05 % strength in data set [2] (setting [3]) is 46%. In data set [2] (setting [4]), the viability at 0.0005 % strength was 38.5%, the viability at 0.001 % strength turned out to be 42.4%, the viability at 0.005 % strength amounted to 76.1% and the viability at 0.01 % strength came to 82.9%. The viability at 0.05 % strength in data set [2] (setting [4]) was found to be 27.8%. In data set [2] (setting [5]), the viability at 0.0005 % strength worked out at 18.8%, the viability at 0.001 % strength was 18.5%, the viability at 0.005 % strength was determined as 12.6% and the viability at 0.01 % strength was 8.9%. Also, the viability at 0.05 % strength in data set [2] (setting [5]) turned out to be 2.7%.
